Legend:
[1] = human liver microsomes
[2] = Human hepatocyte stability; type: in vitro ADME; details: human hepatocytes
[3] = tested on: U87 MG/M human glioblastoma xenografts; details: each dose, for the duration of the xenograft study

Structure (SMILES)	HLM Clhep [1] [mL/min/kg]	HH Clhep [2] [mL/min/kg]	tolerability [3]
COC(C)(C)c1cc2nc(-c3cnc(N)nc3)nc(N3CCOCC3)c2s1 [Compound 1, reference compound]	10.4		
COC1(c2sc3c(N4CCOCC4)nc(-c4cnc(N)nc4)nc3c2C)COC1 [Compound 2, reference compound]	9.8		
Cc1nc(N)ncc1-c1nc(N2CCOCC2)c2nc(C(C)(C)O)n(CCO)c2n1 [Compound 4]	2.8		
Cc1nc(N)ncc1-c1nc(N2CCOCC2)c2nc3n(c2n1)CCOC3(C)C [Compound 15]	3.1	1.2	
CC1(C)OCCn2c1nc1c(N3CCOCC3)nc(-c3cnc(N)nc3)nc12 [Compound 16, GDC-0084]	5.0	1.0	well tolerated

Reference: PMC4834666 (ACS Medicinal Chemistry Letters, 2016)
